Among the data in patent US12281149B2, “Modulators of G-protein coupled receptors” (priority 2021, dated 2025) are EC50 and Emax values, retold here.

Holding throughout (assay type): cell-based
In experiment [1] the target is T1, GLP-1 receptor (Homo sapiens, UniProt P43220). The experiment is described as follows: PathHunter β-arrestin assay, GLP-1 receptor. Also noted: host or cells: PathHunter CHO-K1 GLP1R β-Arrestin Cell Line. The following applies: β-arrestin-2 recruitment, PathHunter CHO-K1 GLP1R β-Arrestin Cell Line, 90 min at 37° C.; normalized to GLP-1; read-out: GLP-1R β Arrestin EC50.

Experiment [2] concerns the target T2, GIP receptor (Homo sapiens, UniProt P48546).
T2 sequence (P48546 22-466): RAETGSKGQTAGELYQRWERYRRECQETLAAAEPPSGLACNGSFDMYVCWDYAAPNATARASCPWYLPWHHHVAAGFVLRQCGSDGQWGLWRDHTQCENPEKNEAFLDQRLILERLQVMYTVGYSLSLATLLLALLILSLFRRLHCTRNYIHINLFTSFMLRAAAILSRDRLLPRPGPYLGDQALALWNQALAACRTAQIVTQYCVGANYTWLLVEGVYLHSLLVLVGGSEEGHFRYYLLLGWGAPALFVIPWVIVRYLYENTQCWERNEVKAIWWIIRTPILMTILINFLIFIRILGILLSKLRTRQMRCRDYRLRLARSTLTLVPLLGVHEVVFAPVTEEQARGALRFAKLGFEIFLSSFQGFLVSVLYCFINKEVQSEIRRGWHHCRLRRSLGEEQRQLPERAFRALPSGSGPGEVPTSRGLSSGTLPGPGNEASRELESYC
The experiment is described as follows: HitHunter cAMP assay, GIP receptor. The following applies: for EC50: CHO cells stably expressing GIP receptor, cAMP accumulation, 30 min, read-out: EC50 GIP-1R; for Emax: CHO cells, cAMP, normalized to maximum signal from GIP (high) and DMSO (low), read-out: Emax GIP-1R. For orientation: Cyclic AMP is a second messenger, typically raised through Gs and lowered through Gi signalling.

For experiment [3], the target named is T1, GLP-1 receptor. The experiment is described as follows: HitHunter cAMP assay, GLP-1 receptor. As to conditions: for EC50: CHO cells stably expressing human GLP-1 receptor, cAMP accumulation, 30 min, read-out: EC50 GLP-1R; for Emax: CHO cells, cAMP, normalized to maximum signal from GLP-1 (high) and DMSO (low), read-out: Emax GLP-1R.
For experiment [4], the target named is T2, GIP receptor. The experiment is described as follows: PathHunter β-arrestin assay, GIP receptor. The following applies: β-arrestin-2 recruitment, PathHunter CHO-K1 GIPR β-Arrestin Cell Line, 90 min at 37° C.; normalized to GIP; read-out: GIPR β Arrestin EC50. Also noted: host or cells: PathHunter CHO-K1 GIPR β-Arrestin Cell Line. In general terms: Arrestin recruitment assays detect the binding of arrestin to an activated receptor.

Molecules are shown by their SMILES. *1 amine or outer side, *2 acyl side, *3 side chain or, on linkers, in order; H or OH if unused. Where a SMILES comes first, the peptide text is derived from it. Side-chain parts run from the residue outwards. [ ]: non-standard residue; d: D form. The star is where a group is joined. Cyclopropanecarbonyl(1-Ph) = O=C(C1(c2ccccc2)CC1)*; C20 diacid = O=C(O)CCCCCCCCCCCCCCCCCCC(=O)*; γGlu = O=C(O)[C@H](CCC(=O)[*:2])N[*:1]; X61 = CC(C)(C(=O)*)c1ccccc1F; AEEA = NCCOCCOCC(=O)O; Aib = CC(C)(N)C(=O)O; βAla = NCCC(=O)O Bounds are passed on as bounds.

T1 sequence (P43220 24-463): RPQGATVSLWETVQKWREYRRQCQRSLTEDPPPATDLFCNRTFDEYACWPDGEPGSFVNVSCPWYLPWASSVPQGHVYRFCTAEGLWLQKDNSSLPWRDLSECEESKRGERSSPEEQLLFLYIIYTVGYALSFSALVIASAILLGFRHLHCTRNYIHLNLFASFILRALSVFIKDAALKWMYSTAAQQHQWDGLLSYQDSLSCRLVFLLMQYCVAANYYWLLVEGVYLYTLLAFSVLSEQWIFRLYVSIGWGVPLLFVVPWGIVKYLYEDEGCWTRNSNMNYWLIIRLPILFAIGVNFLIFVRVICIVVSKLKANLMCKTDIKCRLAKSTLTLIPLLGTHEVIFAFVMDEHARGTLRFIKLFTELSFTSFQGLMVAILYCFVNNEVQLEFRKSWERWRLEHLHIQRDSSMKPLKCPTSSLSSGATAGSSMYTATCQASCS

On to `CC[C@H](C)[C@H](NC(=O)[C@H](CC(C)C)NC(=O)[C@H](Cc1c[nH]c2ccccc12)NC(=O)[C@H](CCC(N)=O)NC(=O)[C@@H](NC(=O)[C@H](Cc1ccccc1)NC(=O)[C@H](C)NC(=O)[C@H](CCCCNC(=O)COCCOCCNC(=O)COCCOCCNC(=O)CC[C@H](NC(=O)CCCCCCCCCCCCCCCCCCC(=O)O)C(=O)O)NC(=O)[C@H](CCC(N)=O)NC(=O)[C@H](C)NC(=O)[C@@H](NC(=O)[C@H](CCCCN)NC(=O)[C@H](CC(=O)O)NC(=O)[C@H](CC(C)C)NC(=O)C(C)(C)NC(=O)[C@@H](NC(=O)[C@H](CO)NC(=O)[C@H](Cc1ccc(O)cc1)NC(=O)[C@H](CC(=O)O)NC(=O)[C@H](CO)NC(=O)[C@@H](NC(=O)[C@H](Cc1ccccc1)NC(=O)[C@@H](NC(=O)CNC(=O)[C@H](CCC(=O)O)NC(=O)CCNC(=O)C(C)(C)c1ccccc1F)[C@@H](C)O)[C@@H](C)O)[C@@H](C)CC)[C@@H](C)CC)C(C)C)C(=O)N[C@@H](C)C(=O)NCC(=O)NCC(=O)N1CCC[C@H]1C(=O)N[C@@H](CO)C(=O)N[C@@H](CO)C(=O)NCC(=O)N[C@@H](C)C(=O)N1CCC[C@H]1C(=O)N1CCC[C@H]1C(=O)N1CCC[C@H]1C(=O)N[C@@H](CO)C(N)=O` [Compound 198] ({X61-βAla}-EGTFTSDYSI[Aib]LDKIAQK([AEEA-AEEA-γGlu-C20 diacid])AFVQWLIAGGPSSGAPPPS-NH2), for which the EC50 – broadly, the concentration needed to bring the measured effect to its halfway point – on GLP-1 receptor [1] was more than 1000 nM; on GIP receptor [2], 1 to 10 nM; at GLP-1 receptor [3] it was 0.1 to 1 nM; at GIP receptor [4], less than 1000 nM. In addition, the results for the Emax on GIP receptor [2] and at GLP-1 receptor [3] were 102% and 99%, respectively.

As for `CC[C@H](C)[C@H](NC(=O)[C@H](CC(C)C)NC(=O)[C@H](Cc1c[nH]c2ccccc12)NC(=O)[C@H](CCC(N)=O)NC(=O)[C@@H](NC(=O)[C@H](Cc1ccccc1)NC(=O)[C@H](C)NC(=O)[C@H](CCCCNC(=O)COCCOCCNC(=O)COCCOCCNC(=O)CC[C@H](NC(=O)CCCCCCCCCCCCCCCCCCC(=O)O)C(=O)O)NC(=O)[C@H](CCC(N)=O)NC(=O)[C@H](C)NC(=O)[C@@H](NC(=O)[C@H](CCCCN)NC(=O)[C@H](CC(=O)O)NC(=O)[C@H](CC(C)C)NC(=O)C(C)(C)NC(=O)[C@@H](NC(=O)[C@H](CO)NC(=O)[C@H](Cc1ccc(O)cc1)NC(=O)[C@H](CC(=O)O)NC(=O)[C@H](CO)NC(=O)[C@@H](NC(=O)[C@H](Cc1ccccc1)NC(=O)[C@@H](NC(=O)CNC(=O)[C@H](CCC(=O)O)NC(=O)CCNC(=O)C1(c2ccccc2)CC1)[C@@H](C)O)[C@@H](C)O)[C@@H](C)CC)[C@@H](C)CC)C(C)C)C(=O)N[C@@H](C)C(=O)NCC(=O)NCC(=O)N1CCC[C@H]1C(=O)N[C@@H](CO)C(=O)N[C@@H](CO)C(=O)NCC(=O)N[C@@H](C)C(=O)N1CCC[C@H]1C(=O)N1CCC[C@H]1C(=O)N1CCC[C@H]1C(=O)N[C@@H](CO)C(N)=O` [Compound 199] ({Cyclopropanecarbonyl(1-Ph)-βAla}-EGTFTSDYSI[Aib]LDKIAQK([AEEA-AEEA-γGlu-C20 diacid])AFVQWLIAGGPSSGAPPPS-NH2), the EC50 was more than 1000 nM on GLP-1 receptor [1], 10 to 100 nM at GIP receptor [2], 1 to 10 nM on GLP-1 receptor [3] and more than 1000 nM on GIP receptor [4]. Besides, the values for the Emax on GIP receptor [2] and at GLP-1 receptor [3] were 102% and 100%, respectively.
